Reference: US20120135965A1, “AMORPHOUS FOSAMPRENAVIR CALCIUM” (RANBAXY LABORATORIES LIMITED, priority 2009, published 2012)
Read-outs that look alike come from different tables or passages of the source. Marks after values point to notes of the source that are not given here.

Columns and labels:
[1] = Aqueous solubility test according to United States Pharmacopeia 32; assay type: physicochemical; details: for Solubility (mg/ml of solvent) / Parts of solvent required per g of solute / solubility: aqueous; for Solubility (mg/ml of solvent) / solubility: by qualitative observation; for solubility: thermodynamic from solid, read-out: Solubility (mg/ml of solvent)
[2] = Hygroscopicity according to European Pharmacopoeia 6.0; assay type: physicochemical; details: for Hygroscopicity, % increase in mass: 25 ± 1° C./80 ± 2% RH for 24 h, monocalcium salt
[3] = Storage stability of the amorphous form followed by XRPD; assay type: physicochemical; details: 40±1° C. at 75±2% RH, two months
Experimental: The XRPD of the samples were determined by using Panalytical X'Pert Pro X-Ray Powder Diffractometer in the range 3 to 40 degree 2 theta with a step size of 0.02 and under tube voltage and current of 45 Kv and 40 mA respectively. Copper radiation of wavelength 1.54 angstrom and Xceletor detector were used.
Fosamprenavir calcium (5 g) was dissolved in methanol (125 ml) at 25° to 30° C. The solution was filtered and fed to a spray dryer (BUCHI, B-290) at feed pump RPM of 1% to 3%. The following parameters were controlled in the spray drying process: • Nozzle Diameter: 0.7 mm • Carrier gas: Nitrogen at 2.0 to 3.0 kg/cm^2 • Air inlet temperature: 80° to 85° C. • Outlet temperature: 35° to 55° C. • Type of atomizer: Two fluid nozzle • The solvent was evaporated at 80° to 85° C. by spray drying. The solid so obtained was collected from the spray dryer and further dried at 55° to 60° C. under vacuum (10 to 15 mmHg) for 10 to 12 hours to obtain the title compound having an XRPD pattern as depicted in FIG. 2.

[4] = Antimicrob. Agents Chemother., 2004, 48(3), 791-798; cited from earlier work

Q: Which results are given for CC(C)CN(C[C@@H](OP(=O)([O-])[O-])[C@H](Cc1ccccc1)NC(=O)O[C@H]1CCOC1)S(=O)(=O)c1ccc(N)cc1.[Ca+2] [Amorphous fosamprenavir calcium, (3S)-tetrahydrofuran-3-yl (1S ,2R)-3-[[(4-aminophenyl)sulfonyl](isobutyl)amino]-1-benzyl-2-(phosphonooxy)propylcarbamate monocalcium salt]?
A: Solubility (mg/ml of solvent) ([1]; pH 1.47, monocalcium salt): 1.25 mg/mL; Parts of solvent required per g of solute ([1]; pH 1.47, monocalcium salt): 800 parts; Solubility (mg/ml of solvent) ([1]; pH 3.27, monocalcium salt): 10 mg/mL; Parts of solvent required per g of solute ([1]; pH 3.27, monocalcium salt): 100 parts; Parts of solvent required per g of solute ([1]; pH 4.11, monocalcium salt): 150 parts; Solubility (mg/ml of solvent) ([1]; pH 5.02, monocalcium salt): 6.7 mg/mL; Parts of solvent required per g of solute ([1]; pH 5.02, monocalcium salt): 150 parts; solubility ([1]; pH 4.11, aqueous buffer, pH 4.11): 6.7 mg/mL; solubility ([1]; pH 6.27, aqueous buffer, pH 6.27): 0.1 mg/mL; Volume of aqueous solution required for dissolving about 1 g ([1]; pH of about 3 to about 5.5): not more than 200 ml; Solubility compared with crystalline form I of fosamprenavir calcium ([1]; relevant physiological pH range): superior; Hygroscopicity in words [2]: essentially non-hygroscopic; Hygroscopicity, % increase in mass [2]: 17.5%; Change in XRPD pattern / conversion into crystalline form on storage ([3]; listed as Example 2, monocalcium salt): no change in the XRPD pattern was observed; Change in XRPD pattern / conversion into crystalline form on storage ([3]; monocalcium salt): not converted into any crystalline form

Q: With CC(C)CN(C[C@@H](OP(=O)([O-])[O-])[C@H](Cc1ccccc1)NC(=O)O[C@H]1CCOC1)S(=O)(=O)c1ccc(N)cc1.[Ca+2] [calcium salt, (3S)-tetrahydrofuran-3-yl (1S ,2R)-3-[[(4-aminophenyl)sulfonyl](isobutyl)amino]-1-benzyl-2-(phosphonooxy)propylcarbamate monocalcium salt] as the molecule, how does the “Solubility over the relevant physiological pH range, compared among forms” value [4] read?
A: Its value is “reduced solubility”.

Q: Which “Hygroscopicity, % increase in mass” value ([2]; listed as Crystalline form I) does the source give for CC(C)CN(C[C@@H](OP(=O)([O-])[O-])[C@H](Cc1ccccc1)NC(=O)O[C@H]1CCOC1)S(=O)(=O)c1ccc(N)cc1.[Ca+2] [(3S)-tetrahydrofuran-3-yl (1S ,2R)-3-[[(4-aminophenyl)sulfonyl](isobutyl)amino]-1-benzyl-2-(phosphonooxy)propylcarbamate monocalcium salt, reference compound] here?
A: Its value is 11.62%.

Q: Which “Solubility (mg/ml of solvent)” value ([1]; pH 1.47) does the source give for CC(C)CN(C[C@@H](OP(=O)([O-])[O-])[C@H](Cc1ccccc1)NC(=O)O[C@H]1CCOC1)S(=O)(=O)c1ccc(N)cc1.[Ca+2] [Crystalline form I of fosamprenavir calcium] [(3S)-tetrahydrofuran-3-yl (1S ,2R)-3-[[(4-aminophenyl)sulfonyl](isobutyl)amino]-1-benzyl-2-(phosphonooxy)propylcarbamate monocalcium salt, reference compound] here?
A: Its value is 0.5 mg/mL.

Q: And the “Parts of solvent required per g of solute” value (from here on “Parts … per g of solute”) ([1]; pH 1.47, monocalcium salt)?
A: The value was 2100 parts.

Q: What about the “Solubility (mg/ml of solvent)” value ([1]; pH 3.27, monocalcium salt) of the same molecule?
A: Its value is 2.5 mg/mL.

Q: And the “Parts … per g of solute” value ([1]; pH 3.27, monocalcium salt)?
A: Its value is 400 parts.

Q: And the “Solubility (mg/ml of solvent)” value ([1]; pH 4.11, monocalcium salt)?
A: Its value is 4.0 mg/mL.

Q: What about the “Parts … per g of solute” value ([1]; pH 4.11, monocalcium salt) of the same molecule?
A: The value was 250 parts.

Q: What about the “Solubility (mg/ml of solvent)” value ([1]; pH 5.02, monocalcium salt) of the same molecule?
A: Its value is 3.3 mg/mL.

Q: What about the “Parts … per g of solute” value ([1]; pH 5.02, monocalcium salt) of the same molecule?
A: The value was 300 parts.

Q: What about the “Parts … per g of solute” value ([1]; pH 6.27, monocalcium salt) of the same molecule?
A: Its value is > 10,000** parts.
